Laboratory results from patent US8420331B2, “Type IV collagen-like immunoreactive peptide” (priority 2006, dated 2013).

What was measured:
[1] = system: antibody (IgG) in urine of nephritis patients; test: Screening of antigenic site on alpha 5 chain NC1: ELISA with synthetic peptides as coating antigen; assay type: binding, human
Experimental: A preliminary test was carried out, using the ELISA method, in which NC1 as the antigen for coating was replaced with synthetic peptides. The measurement conditions were: antigen concentration: 10 μg/mL (10 mM PBS), 100 μL/well; blocking agent: Block Ace (manufactured by Dainippon Pharmaceutical Co., Ltd.) diluted to 25%, 250 μL/well; urine: human 20- to 100-fold dilution; second antibody (enzyme-labeled anti-human IgG antibody): ×800; and substrate solution: TMB (+) (manufactured by DAKO Corp). The specimen was diluted to 20- to 100-fold, unlike the original fourfold dilution of NC1 as the antigen. […] Accordingly, a main test was carried out using NC1 of the alpha 5 chain. Note that 301 contained the amino acid sequence about 5 to 18 from the N-terminus on the alpha 3 chain corresponding to Goodpasture syndrome specified by computer software. Furthermore, it was possible to check alpha chains other than the alpha 5 chain, such as 301. […] Therefore, it was possible to use both antigens as nephritis detection reagents.
A test was carried out using the ELISA method, in which NC1 as the antigen for coating was replaced with synthetic peptides, under the same conditions as those described above.
The peptides of the alpha 5 chain were prepared as described below. Fifteen synthetic peptides were prepared from the whole region of the alpha 5 chain NC1, in which a first unit of 20 amino acid residues was selected from the N-terminus, and subsequent units, each containing 20 amino acid residues, were selected with 5 amino acid residues overlapping each other (hereinafter referred to as yp01 to yp15 (H4NA5-1 to 5-15 in FIG. 6), yp15 containing more than 20 amino acid residues). […] Thus, the five peptides were antigenic sites common to the specimen A, the specimen B, and IgA nephropathy which were derived from different diseases. As described above, bovine glomerulus-derived NC1 and triple helix have substantially the same reactivity with nephritis urine specimens, and both are considered to be common antigens to nephritis. Thus, the triple helix (7S and/or the central helical domain) of the alpha 5 chain and peptides thereof can be considered as immunoreactive peptide candidates. The whole alpha 5 chain may be used as an antigen. However, in such a case, a time-consuming process is required.

[2] = system: rabbits (female); test: ELISA antibody level in serum of peptide-immunised rabbits (peptide-coated microplate); assay type: in vivo; conditions: rabbit serum
Experimental: (§1) Peptides 0.3 mg/mL (0.15 mg only for initial administration) together with the same amount of FCA were intradermally administered to rabbits (female) once in two weeks, four times in total.
Furthermore, in the ELISA method in which the microplate was coated with the peptide yp12 (SEQ ID NO: 6) (10 μg/mL), in 7 weeks after the initial administration, at a dilution of 32,000 fold, the antibody level in serum reached 3.00, which is in the vicinity of the upper limit of measurement of the absorptiometer.

[3] = system: rabbits (female); test: Nephritis model using immunoreactive peptide as inducer, rabbits, urinary protein; assay type: in vivo, rabbit; conditions: peptide 0.3 mg/mL with FCA intradermally once in two weeks, four times
Experimental: The selected peptides can be used as an inducer of nephritis independently and/or in combination with each other. Although yp08 (SEQ ID NO: 8) and yp12 (SEQ ID NO: 6) were used as peptides and rabbits and guinea pigs were used as animals, the peptides, animals, and administration methods are not limited thereto.
as §1

[4] = system: guinea pigs (female); test: ELISA antibody level in serum of peptide-immunised guinea pigs (yp12-coated microplate); assay type: in vivo; conditions: guinea pig serum, dilution 8,000 fold, 7 weeks after initial administration
Experimental: Peptides 0.1 mg/mL together with the same amount of FCA were intradermally administered to guinea pigs (female) once in two weeks, four times in total.
Furthermore, in the ELISA method in which the microplate was coated with the peptide yp12 (SEQ ID NO: 6) (10 μg/mL), in 7 weeks after the initial administration, at a dilution of 8,000 fold, the antibody level in guinea pig serum reached 3.00, which is in the vicinity of the upper limit of measurement of the absorptiometer. Furthermore, intra-abdominal administration to rats or mice of these anti-immunoreactive peptide antibodies (antiserum) enabled production of models of nephritis which was weak, close to that of human, and slowly progressive, unlike the administration of conventional anti-NC1 antibodies (antiserum).

[5] = specimen A (chronic nephritis: No. 38)
[6] = specimen B (diabetic nephritis: No. 42)

Substance	reaction with urine specimen ([1]; IgA nephropathy)	reaction with urine specimen [1, 5]	reaction with urine specimen [1, 6]	ELISA antibody level in serum (A450 nm) ([2]; dilution ×8,000)	urinary protein [3]	ELISA antibody level in serum (A450 nm) ([2]; dilution 32,000 fold, 7 weeks after initial administration)	ELISA antibody level in serum (A450 nm) [4]
GRGTC NYYAN SYSFW LATVD (GRGTCNYYANSYSFWLATVD; peptide with homology to Type IV collagen) [yp13, synthetic 20-residue peptide from human type IV collagen alpha 5 chain NC1]	strongly reacted	strongly reacted	strongly reacted	–	–	–	–
STMPF MFCNI NNVCN FASRN (STMPFMFCNINNVCNFASRN; peptide with homology to Type IV collagen) [yp05, synthetic 20-residue peptide from human type IV collagen alpha 5 chain NC1]	strongly reacted	strongly reacted	strongly reacted	–	–	–	–
GWDSL WIGYS FMMHT SAGAE (GWDSLWIGYSFMMHTSAGAE; peptide with homology to Type IV collagen) [yp10, synthetic 20-residue peptide from human type IV collagen alpha 5 chain NC1]	strongly reacted	strongly reacted	strongly reacted	–	–	–	–
PFISR CAVCE APAVV IAVHS (PFISRCAVCEAPAVVIAVHS; peptide with homology to Type IV collagen) [yp08, synthetic 20-residue peptide from human type IV collagen alpha 5 chain NC1]	strongly reacted	strongly reacted	strongly reacted	3.00	+2	–	–
SCLEE FRSAP FIECH GRGTC (SCLEEFRSAPFIECHGRGTC; peptide with homology to Type IV collagen) [yp12, synthetic 20-residue peptide from human type IV collagen alpha 5 chain NC1]	strongly reacted	strongly reacted	strongly reacted	–	+2	3.00	3.00
